“Also recorded” adds a separate entry of the source.
Experiments:
Assay type in all cases: in vivo, mouse
Cryba1 cKO mice [1] = test: ELISA of CXCL1 and IFNλ in RPE-choroid after intravitreal injection; conditions: versus age-matched vehicle and untreated
Procedure: The RPE choroid complexes harvested from freshly enucleated mouse eyes were kept on ice and then homogenized in 300 μL of complete extraction buffer (Abcam, USA) per 5 mg of tissue. The homogenized tissue was allowed to stay in constant agitation for 2 h at 4° C., centrifuged at 13,000 rpm at 4° C. for 20 min. The supernatants were aliquoted and stored at −80° C. and were subsequently used to perform ELISA to evaluate the levels of IFNλ, and CXCL1, as previously described^13.
(§1) Cryba1^fl/fl and Cryba1 cKO mice (Male, 12 months old; n=4) were anaesthetized by intraperitoneal injection of 0.15 ml of ketamine (2.5 mg/ml)+ xylazine (0.5 mg/ml) mixture. Topical anesthesia (proparacaine hydrochloride) was applied to the eye and pupils dilated with a drop of topical 2.5% phenylephrine hydrochloride ophthalmic solution. The eye was proptosed by slight depression of the lower lid with blunt curved forceps and washed with sterile saline. […] All instruments were sterilized with a steam autoclave. Bacitracin Ophthalmic ointment was applied postoperatively^6. Animals were euthanized with CO2 gas four weeks after the first injection and the retinas were harvested.

AKT2 (p-AKT2 S474) = test: immunoblot of AKT2 phosphorylation in retinas after intravitreal injection; conditions: 1-year-old Cryba1 cKO mice
Procedure: SDS-PAGE and western blot analyses were performed as previously described^12. The primary antibodies were used at a dilution of 1:1000 whereas, all secondary antibodies were used at a dilution of 1:3000.
as §1

Cryba1 cKO mice [2] = test: flow cytometry estimation of percentage neutrophils in retina after intravitreal injection; conditions: male, 12 months old, intravitreal 500 uM, once weekly for three weeks, versus vehicle or untreated
Procedure: Mouse retinas were dissected from enucleated eyes and digested with 0.05% collagenase D at 37° C. for 30 min, teased with blunt end forceps and pipetted to release cells, passed through a 70 μm cell strainer, centrifuged at 1,300 g, 4° C. for 20 minutes^10. The entire pellet was used for staining with the FITC-tagged cell surface markers CD45, V450-tagged Ly6G and Alexa fluor 700-tagged CD11b (BD Pharmigen™, USA) at a concentration of 1 μg/ml in PBS containing 1% BSA for 1 h. Cells were washed and analyzed on a flow cytometer (BD Aria III, FACS DIVA software, BD Biosciences, USA and FlowJo software-version 7.6.5), SSC-A/CD45+(FITC) cells were manually gated and among this population of cells; % Ly6G+ and % CD11b+Ly6G+ cells were quantified.
as §1, with “Animals were euthanized with CO2 gas four weeks after the first injection and the retinas were harvested.” left out

Cryba1 cKO mice [3] = test: histological sections (H&E) of retina after intravitreal injection; conditions: 1 year old, versus vehicle
Procedure: as §1
For hematoxylin and eosin (H&E) staining, eyes from NOD-SCID mice (n=10) were enucleated and fixed initially in 2.5% glutaraldehyde for 72 h, followed by 10% buffered formalin. The eyes were embedded in methyl-methacrylate, sectioned and stained as previously described″.

## NC1(Cc2ccc(Cl)cc2)CCN(c2ncnc3[nH]ccc23)CC1 [CCT128930]
Cryba1 cKO mice [1]
  CXCL1 levels in RPE-choroid: reduced levels
  IFNλ levels in RPE-choroid: reduced levels
AKT2 (p-AKT2 S474); immunoblot
  levels of total AKT in retina: levels of total AKT did not change
AKT2 (p-AKT2 S474); immunoblot densitometry, versus vehicle
  levels of pAKT2 (p-AKT2 S474) in retina: significantly decreased the levels of pAKT2; also recorded: reduced
Cryba1 cKO mice [2]
  infiltrating neutrophils (% Ly6G+ and % CD11b+Ly6G+ cells) in retina: decrease in infiltrating neutrophils; also recorded: significantly fewer neutrophils in the retinas
Cryba1 cKO mice [3]
  retinal structure / early RPE abnormalities (H&E): exhibited normal structure; also recorded: reverses these early RPE abnormalities

Reference: US20210322422A1, “USE OF AKT INHIBITORS IN OPHTHALMOLOGY” (Hoffmann-La Roche Inc., priority 2018, published 2021)
